Reference: patent US20220297126A1, “Microfluidic Pipette Aspirators for Large-Scale Analysis of Single Cells, Clusters and Their Sub-Populations” (Texas Tech University System, priority 2019, published 2022)
Counter-ions that a name gives are not always drawn.

Key:
Type in all cases: cell-based
[1] = test system: MB231 cells; assay: Mechanical characterization (Young's modulus) of drug treated cells in the μFPA device; details: FIG. 12A
Procedure: Total 1440 traps, 150 μL Inlet reservoir, Aspiration channel dimension 5×5×35 μm^3. In these figures, a schematic of the complete design. It has an inlet reservoir for holding cell sample. The inlet channel divides into 8 channels and all of them have dead ends. Aspiration traps are place on both sides of the inlet channels. Outlets of two aspiration arrays comes into an outlet channel. Except the first and last outlet channel where a single aspiration has outlets. It has total 1440 traps. This is the snapshot of the PDMS device. In the SEM image you can have a sense of the larger dimension of inlet and outlet channels compared to the aspiration channels.
FIGS. 10A to 10C show the mechanical characterization of cells in the device of the present invention.
FIGS. 12A and 12B show the sensitivity of different cells (MB231 and MCF7) to different drugs (blebbistatin and paclitaxel), and the Young's modulus of the cells. […] Also, cell cycle phases have altered cytoskeletal scaffold. Thus, the μFPA device is sensitive enough to measure cytoskeletal alterations caused by drug interventions and cell cycle phase.

[2] = test system: MB-231 cells; assay: Identifying the state of drug treated cells (apoptotic, non-proliferating/quiescent, proliferating) in the microfluidic device; details: for cells identified as quiescent: 48 hours
Procedure: (§1) Drug Assays. Drug assays were conducted on the tumor cells trapped in the microfluidic device. Food and Drug Administration (FDA) approved chemotherapeutic medication Doxorubicin hydrochloride (Dox, Sigma Aldrich) was used on these cells. Dox was diluted with WFI (water for injection) for cell culture (Gibco) to make a 1 mM Dox solution and it was stored at 4° C. This stock solution of Dox was diluted to 100 μM using DMEM, and further 10-fold serial dilutions were done using DMEM or 1× Annexin Binding Buffer (Life technologies) to obtain the desired concentrations of 100 μM, 10 μM, 1 μM, 0.1 μM, 0.01 μM and 0.001 μM. For all experiments, Dox was prepared freshly by diluting it to 100 μM using DMEM and further dilutions were done to achieve the desired concentrations of Dox. The mixing of Dox with the cell samples and loading them in the microfluidic device was done within 2 minutes, followed by imaging of the loaded sample in the microfluidic device. After imaging the microfluidic device, it was incubated in 37° C. and 5% CO2 environment.
(§2) Cell staining, viability and apoptosis detection. Proliferation of cells in the microfluidic chip was monitored using CellTracker™ Green CMFDA dye (Life technologies). These counts were validated without staining and by using NucBlue™ Live ReadyProbes™ Reagent (Life technologies) to identify the cell nuclei and thus quantifying the cell counts. LIVE/DEAD® Cell Imaging Kit (Life technologies) was used to analyze viability of cells. The stain was made according to the manufacturer's protocol and was used to identify the live and dead cells. Alexa Fluor® 488 Annexin V (Life technologies) was used for detection of apoptosis. The cell sample and Dox dilution was done using 1× Annexin Binding Buffer (Life technologies). 100 μL of sample was prepared (80 μL cell sample+10 μL Annexin V+10 μL Dox) for conducting drug assays. The final concentrations of the Dox in 100 μL sample were 0.01 μM, 0.001 μM and 0.0001 μM. This sample was incubated at 37° C. and 5% CO2 for 30 minutes before loading in the microfluidic device. The images were taken at different time points for different studies. The microfluidic device was stored in the incubator at 37° C. and 5% CO2 between different image time points.
(§3) Identifying the state of drug treated cells. […] These single cells can exist in an apoptotic state or a non-proliferative (quiescent) state. Thus, identifying the state of the cell can give overall information about the drug resistance of cancer cells.
(§4) The apoptotic cells are dead cells; and the non-proliferating cells are the drug resistant cells which are live and have very low proliferative potential. The proliferating cells are also drug resistant cells, which multiply despite of the presence of drug. The drug response for these trapped cells is assessed at 0, 6, 12, 24, 48 hours at 0.01 μM, 0.001 μM and 0.0001 μM concentrations of Dox.
(§5) At the end of 48 hours, the non-proliferative cells were identified as quiescent cells. […] Similarly, 23%, 34% and 10% of cells were identified as quiescent for 0.01 μM, 0.001 μM and 0.0001 μM of dox and MB-231.

[3] = test system: MCF-7 cells; assay: as above; details: for cells identified as quiescent: 48 hours
Procedure: as §1, §2, §3, §4, §5

[4] = test system: MB-231 single cells; assay: Proliferation of single cells in the microfluidic device in the presence of Dox
Procedure: as §1
(§6) Experimental Protocol. The experimental setup for single cell isolation consists of the microfluidic device, 200 μL single channel pipette (Eppendorf) and a motorized inverted system microscope (Olympus IX81). A sample of 2000 cells in 100 μL was loaded in the 6 mm reservoir (inlet) in the microfluidic device. A 200 μL single channel pipette was set at the 1 mm outlet and it was used to aspirate the cell sample. Flow is generated from the inlet reservoir due to the aspiration pressure and passes through the trapping array. As soon as a cell enters into the parking spots, it gets trap there due to the obstacle pillar. This setup is shown the by schematic in FIG. 2A.
(§7) The MCF-7 cells are tagged using a green fluorescent dye CMFDA (Life technologies) and are trapped in the microfluidic device using the same protocol. […] Media was added in the hydrodynamic height added on the reservoir to keep the cells from getting displaced from the parking spots. All the cell samples including the drug treated cells were handled with the same experimental procedure. The loading time of the cells after cell sample preparation is ˜5 seconds. The hydrodynamic height for the drug treated samples was given by media of corresponding drug concentration.
as §2
(§8) To understand the effect of different concentrations of dox on viability of single cells, the inventors conducted a dose response cell viability assay in the microfluidic device. […] From this viability curve, three concentrations were selected to study the proliferation potential of drug resistant MCF-7 and MB-231 single cells. As the […] on the proliferation rate, the lowest three concentrations were selected for this study. […]

[5] = test system: MCF-7 single cells; assay: as above; details: time not restated (period of 48 hours)
Procedure: as §1, §6, §7, §2, §8

Compound | cytoskeletal alteration seen as Young's modulus of the cells vs control [1] | cells show drug resistance ([2]; MB-231, 0.0001 μM dox) [%] | cells identified as quiescent ([2]; MB-231, 0.0001 μM dox) [%] | cells show drug resistance ([2]; MB-231, 0.001 μM dox) [%] | cells identified as quiescent ([2]; MB-231, 0.001 μM dox) [%] | cells show drug resistance ([2]; MB-231, 0.01 μM dox) [%] | cells identified as quiescent ([2]; MB-231, 0.01 μM dox) [%] | cells show drug resistance ([3]; MCF-7, 0.0001 μM dox) [%] | cells identified as quiescent ([3]; MCF-7, 0.0001 μM dox) [%] | cells show drug resistance ([3]; MCF-7, 0.001 μM dox) [%] | cells identified as quiescent ([3]; MCF-7, 0.001 μM dox) [%] | cells show drug resistance ([3]; MCF-7, 0.01 μM dox) [%] | cells identified as quiescent ([3]; MCF-7, 0.01 μM dox) [%] | cells proliferated ([4]; MB-231, 0.0001 μM dox, time not restated (period of 48 hours)) [%] | cells proliferated ([4]; MB-231, 0.001 μM dox, time not restated (period of 48 hours)) [%] | cells proliferated ([4]; MB-231, 0.01 μM dox, at the end of 48 hours) [%] | cells proliferated ([4]; MB-231, 0.01 μM dox, in 24 hours) [%] | cells underwent proliferation ([5]; MCF-7, 0.0001 μM Dox) [%] | cells underwent proliferation ([5]; MCF-7, 0.001 μM Dox) [%] | cells underwent proliferation ([5]; MCF-7, 0.01 μM Dox) [%]
CC(=O)O[C@H]1C(=O)[C@@]2(C)[C@H]([C@H](OC(=O)c3ccccc3)[C@]3(O)C[C@H](OC(=O)[C@H](O)[C@@H](NC(=O)c4ccccc4)c4ccccc4)C(C)=C1C3(C)C)[C@]1(OC(C)=O)CO[C@@H]1C[C@@H]2O [paclitaxel] | cytoskeletal alternations in MB231 are induced | – | – | – | – | – | – | – | – | – | – | – | – | – | – | – | – | – | – | –
Cc1ccc2c(c1)C(=O)C1(O)CCN(c3ccccc3)C1=N2 (stereo not drawn) [blebbistatin] | cytoskeletal alternations in MB231 are induced | – | – | – | – | – | – | – | – | – | – | – | – | – | – | – | – | – | – | –
COc1cccc2c1C(=O)c1c(O)c3c(c(O)c1C2=O)C[C@@](O)(C(=O)CO)C[C@@H]3O[C@H]1C[C@H](N)[C@H](O)[C@H](C)O1 [Dox, Doxorubicin hydrochloride] | – | ~85 | 10 | ~80 | 34 | ~60 | 23 | ~90 | 6 | ~75 | 10 | ~60 | 8 | ~70 | ~50 | ~40 | ~20 | ~80 | ~60 | ~45
